From ChEMBL document CHEMBL1126623, “Neuraminidase-resistant hemagglutination inhibitors: acrylamide copolymers containing a C-glycoside of N-acetylneuraminic acid” (J Med Chem, 1993) come the findings set out here.

One may read the Ki as the equilibrium dissociation constant of an inhibitor or competing ligand from its target.

The species entered for this assay is Gallus gallus. The experiment in a line: Tested for inhibition of agglutination of chicken erythrocytes in vitro. Format: functional.

`C=CC(=O)NCCSCCCC1(C(=O)O)CC(O)C(NC(C)=O)C(C(O)C(O)CO)O1` (stereo unspecified) returned a Ki of 400 nM.
